According to patent US20080145893A1, “Method for producing a recombinant protein at high specific productivity, high batch yield and high volumetric yield by means of transient transfection” (EXCELLEGENE SA, priority 2006, published 2008):

Key:
HEK293E cells [1] = experiment: Influence of 2-aminopurine on IgG batch yield (ELISA) of transiently transfected cells; format: cell-based; details: with 3 mmol/l sodium butyrate, day 18
CHO DG44 cells = experiment: Influence of temperature and sodium butyrate on IgG batch yield (ELISA) of transiently transfected cells; format: cell-based; details: 2 mmol/l NaBut, peak value during 18 day cultivation
Experimental: After that time, 18 ml of ProCHO5 medium were added. The cells were then equally distributed into 4 new 50-ml filter tubes (i.e., 5 ml of cell suspension in each tube) and treated as follows:
Tubes 8.1 and 8.3: Addition of sodium butyrate to a final concentration of 2 mmol/l
Tubes 8.2 and 8.4: No addition of sodium butyrate.

HEK293E cells [2] = experiment: Influence of sodium butyrate on IgG batch yield (ELISA) of transiently transfected cells; details: day 14

Structure (SMILES) | Batch yield (HEK293E cells [1]; 5 mmol/l 2-aminopurine) [mg/L] | Batch yield (HEK293E cells [1]; 10 mmol/l 2-aminopurine) [mg/L] | Maximum batch yield (CHO DG44 cells; 31° C.) [mg/L] | Maximum batch yield (CHO DG44 cells; 37° C.) [mg/L] | Batch yield (HEK293E cells [2]; 1 mmol/l NaBut) [mg/L] | Batch yield (HEK293E cells [2]; 2 mmol/l NaBut) [mg/L] | Batch yield (HEK293E cells [2]; 3 mmol/l NaBut) [mg/L] | Batch yield (HEK293E cells [2]; 6 mmol/NaBut) [mg/L] | Batch yield (HEK293E cells [2]; 12 mmol/l NaBut) [mg/L]
Nc1ncc2[nH]cnc2n1 [2-aminopurine] | 628 | 708 |  |  |  |  |  |  | 
CCCC(=O)[O-].[Na+] [NaBut, sodium butyrate] |  |  | 231 | 218 | 419 | 632 | 673 | 447 | 288
